Data from patent publication US20100255469A1, “Cell monitoring and molecular analysis” (priority 2008, published 2010).

Assays:
HT29 cells [1] = assay: qPCR with RealTime Ready Human Apoptosis Panel, 96 in paclitaxel-treated HT29 cells; type: cell-based
Experimental: (§1) Cells were harvested for RNA isolation after one, two, four and 24 hours. Cell number was determined and portions of 10^6 cells were used for RNA isolation applying the High Pure RNA Isolation Kit following the manufacturer's instruction.
(§2) From each RNA population 1 μg total RNA was used for cDNA synthesis with the Transcriptor First Strand cDNA Synthesis Kit.
(§3) The total yield of one cDNA synthesis reaction starting from 1 μg RNA was used as template for each RealTime ready Human Apoptosis Panel, 96 or RealTime ready Human Cell Cycle Panel, 96. Total PCR reaction volume per well was 20 μl with Light Cycler480 Probes Master. The easy-to-use macro for the panel containing PCR protocol, sample setup and analysis was applied on LIGHTCYCLER480 software 1.5.
(§4) Four time points, one, two, four and twenty four hours were selected for qPCR runs on the LIGHTCYCLER480 system using the RealTime Ready Human Apoptosis Panel, 96 (FIG. 5) and the RealTime Ready Human Cell Cycle Panel, 96 (FIG. 7). Gene names corresponding to the numbers that can be found in the package insert of both panels (Roche Applied Science).

MCF-7 cells [2] = assay: Gene expression profiling by q-RT-PCR (LIGHTCYCLER 480) of Paclitaxel-treated MCF-7 cells; type: cell-based, human
Experimental: We have performed gene expression profiling experiments of MCF-7 cells treated with Paclitaxel for a period of approximately 150 h. Within this example the gene expression of 20 different genes (gene accession numbers in brackets) were monitored:
We intended to determine and reproduce gene expression changes with time upon drug treatment, the majority of which had been observed and described before by others in an independent in vivo-study based on DNA microarray technique using ovarian carcinoma xenografts ([…], M., R., et al., Molecular Cancer Therapeutics 3(2) (2004) 111-121; Boschke, C., B., et al., Uni Tubingen (2008)). The time points for our pharmacokinetic screens have been chosen depending on cellular changes in response to Paclitaxel-treatment which were monitored by impedance-based real time cell analysis using the XCELLIGENCE system. Independent from the quality and extent of these cellular changes we harvested non-treated controls and drug-treated cells at their appropriate time points (6, 24, 72 and 147 h), isolated the mRNA by means of the MAGNA PURE System, reverse transcribed the total mRNA into cDNA using a common Thermocycler, pooled and diluted the cDNA samples and amplified the predefined set of specific genes as well as house keeping genes in triplicates by q-RT-PCR making use of the LIGHTCYCLER 480 System. Necessary primer pairs were synthesized and tested for functionality in-house in combination with a bioinformatically determined UPL probe (data not shown). The LIGHTCYCLER software 1.5 allowed the relative quantification of the selected mRNA abundance under Paclitaxel-treated conditions with respect to the corresponding non-treated situation (reference). Results are corrected by the values determined for internal standard genes (stably expressed house keeping genes), like β-Actin, β-Globin and GAPDH. […]

HT29 cells [3] = assay: qPCR with RealTime Ready Human Cell Cycle Panel, 96 in paclitaxel-treated HT29 cells; type: cell-based; details: 50 nM paclitaxel vs DMSO control; time points 1, 2, 4, 24 hours
Experimental: as §1, §2, §3, §4

HT29 cells [4] = assay: Cell Index monitoring (XCELLIGENCE RTCA SP) of HT29 cells treated with paclitaxel; type: cell-based; details: 50 nM paclitaxel
Experimental: HT29 cells were cultivated in parallel in McCoy's medium in either T75 cell culture bottles (for RNA isolation) or an E-Plate 96 (for cell growth monitoring) and in three regular microtiter plates (for WST-1 assay).
The surface of the bottom of a single well of the E-Plate 96 is given with approx. 0.2 cm^2. T75 cell culture bottles have 75 cm^2.
After 24 hours incubation at 37° C. paclitaxel was added to a final concentration of 50 nM. As the 2 mM paclitaxel stock was dissolved in DMSO, control cells were treated with DMSO to a final concentration of 0.0025%. In addition cells treated with medium only were monitored in parallel.
All cells were further incubated at 37° C. The growth of the cells was monitored real time on the RTCA SP Station over the whole course of the experiment (FIG. 3).
To ensure that untreated cells are within the early logarithmic growth phase at the time point of paclitaxel treatment, cells were treated with 50 nM paclitaxel at approx. ⅓ of their maximum Cell Index at 20 hours after seeding.

MCF-7 cells [5] = assay: Impedance-based real time cell analysis (XCELLIGENCE) of MCF-7 cells treated with Paclitaxel; design: species or system human; details: 12.5 nM Paclitaxel
Text: In this example, we have investigated gene expression profiles of human MCF-7 breast cancer cells (human adenocarcinoma breast cancer cell line) obtained from ATCC (passage number: 15, cell number: 5000 cells per well), maintained in MEM (32360, Gibco)+10% FCS (30-3702, PAN)+Na-Pyruvat (PO4-43100, PAN)+Nonessential amino acids (P08-32100, PAN) at time points that are indicated by changes in cell characteristics as visualized by changes of impedance (cell indices) measurements upon drug addition. Accordingly, gene expression profiles were determined at 6 h, 24 h, 72 h and 147 h upon Paclitaxel administration. […] It includes genes involved in various biological functions such as cell cycle regulation and cell proliferation, apoptosis, signal transduction and transcriptional regulation, fatty acid and sterol metabolism and IFN-mediated signaling (Bani, M., R., et al., Molecular Cancer Therapeutics 3(2) (2004) 111-121). With respect to the two time points (6 h and 24 h upon drug administration) microarray studies had been performed by other groups and we were able to reproduce 70% of their results (Bani, M., R., et al., Molecular Cancer Therapeutics 3(2) (2004) 111-121). In addition, we determined mRNA levels at two additional time points (72 h and 147 h upon drug administration) during prolonged drug exposure of cells.
Procedure: Seeding, Growth. […]
5000 MCF-7 cells were seeded per well and 24 h later treated with a final concentration of 12.5 nM Paclitaxel (dissolved in DMSO). […] The Paclitaxel concentration we applied in this experiment represents twice the IC50-value of this drug for MCF-7 cells and had been determined in an dose-response experiment (Paclitaxel titration) with the XCELLIGENCE system and an appropriate tool of the XCELLIGENCE software SP1.0.0.0807 (data not shown).

CC(=O)O[C@H]1C(=O)[C@@]2(C)[C@H]([C@H](OC(=O)c3ccccc3)[C@]3(O)C[C@H](OC(=O)[C@H](O)[C@@H](NC(=O)c4ccccc4)c4ccccc4)C(C)=C1C3(C)C)[C@]1(OC(C)=O)CO[C@@H]1C[C@@H]2O [Paclitaxel]
number of genes significantly (more than 4 times) up/down regulated (HT29 cells [1]; 50 nM paclitaxel vs DMSO control, all time points compared): 6 genes | time of most significant alteration of expression level of apoptosis related genes (HT29 cells [1]; 50 nM paclitaxel vs DMSO control, time points 1, 2, 4, 24 hours): within the first hour | significant gene expression changes compared to DMSO control (HT29 cells [1]; two and four hours after paclitaxel treatment, 50 nM): no genes show significant expression changes | gene expression changes of investigated genes (MCF-7 cells [2]; 6 h upon drug addition, 12.5 nM Paclitaxel, vs non-treated): only small changes in expression | gene expression changes of selected genes (e.g. CDKN1A, FOS, PIG8, TOP2A, MADH2) (MCF-7 cells [2]; 24 h after Paclitaxel treatment, 12.5 nM): become more obvious | gene expression changes (ISG15, IFITM1, BNIP3, SLUG, ARF-1, CDC2, PLAB, IDI1) (MCF-7 cells [2]; later stages (72 and 147 h) of Paclitaxel treatment, 12.5 nM): strongest gene expression changes | time of most dramatic effects on cell cycle gene expression (HT29 cells [3]): within the first four hours | time after treatment to reach minimum Cell Index (HT29 cells [4]): approx. 24 hours | Cell Index (normalized) (HT29 cells [4]; 24 hours after treatment): zero | Cell Index change (HT29 cells [4]; within the first hour after treatment): slightly increased | time upon drug addition at which proliferation curve switches from descending to ascending course (MCF-7 cells [5]): approximately 20 h | course of proliferation curve (impedance / cell index) versus control (MCF-7 cells [5]; control 0.1% DMSO): lower impedance or cell index values | time upon drug treatment at which proliferation curve again begins to descend (MCF-7 cells [5]; descent continues up to ca. 150 h): around 70 h
